Measurements taken from ChEMBL document CHEMBL5442219.

Assays:
Conditions in all cases: Compound concentration 10 µM
[1] = target: Muscarinic acetylcholine receptor M3 (Homo sapiens) (UniProt P20309)
Description: PDSP Primary Binding target: CHRM3 - Compounds are tested at 10 uM concentration, plate are incubated at room temperature in the dark for 90 minutes. Reaction are stopped by vacuum filtration onto 0.3% polyethyleneimine soaked filter mats using Filtermate harvester. Scintilation cocktail is then melted onto microwave-dried filters on a hot plate and the radio activity is counted in Microbia counter.

[2] = target: 5-hydroxytryptamine receptor 6 (Homo sapiens) (UniProt P50406)
Description: PDSP Primary Binding target: HTR6 - Compounds are tested at 10 uM concentration, plate are incubated at room temperature in the dark for 90 minutes. Reaction are stopped by vacuum filtration onto 0.3% polyethyleneimine soaked filter mats using Filtermate harvester. Scintilation cocktail is then melted onto microwave-dried filters on a hot plate and the radio activity is counted in Microbia counter.

[3] = target: D(2) dopamine receptor (Homo sapiens) (UniProt P14416)
Description: PDSP Primary Binding target: DRD2 - Compounds are tested at 10 uM concentration, plate are incubated at room temperature in the dark for 90 minutes. Reaction are stopped by vacuum filtration onto 0.3% polyethyleneimine soaked filter mats using Filtermate harvester. Scintilation cocktail is then melted onto microwave-dried filters on a hot plate and the radio activity is counted in Microbia counter.

[4] = target: D(1B) dopamine receptor (Homo sapiens) (UniProt P21918)
Description: PDSP Primary Binding target: DRD5 - Compounds are tested at 10 uM concentration, plate are incubated at room temperature in the dark for 90 minutes. Reaction are stopped by vacuum filtration onto 0.3% polyethyleneimine soaked filter mats using Filtermate harvester. Scintilation cocktail is then melted onto microwave-dried filters on a hot plate and the radio activity is counted in Microbia counter.

[5] = target: T1, Alpha-2B adrenergic receptor (Homo sapiens) (UniProt P18089)
T1 sequence (whole entry): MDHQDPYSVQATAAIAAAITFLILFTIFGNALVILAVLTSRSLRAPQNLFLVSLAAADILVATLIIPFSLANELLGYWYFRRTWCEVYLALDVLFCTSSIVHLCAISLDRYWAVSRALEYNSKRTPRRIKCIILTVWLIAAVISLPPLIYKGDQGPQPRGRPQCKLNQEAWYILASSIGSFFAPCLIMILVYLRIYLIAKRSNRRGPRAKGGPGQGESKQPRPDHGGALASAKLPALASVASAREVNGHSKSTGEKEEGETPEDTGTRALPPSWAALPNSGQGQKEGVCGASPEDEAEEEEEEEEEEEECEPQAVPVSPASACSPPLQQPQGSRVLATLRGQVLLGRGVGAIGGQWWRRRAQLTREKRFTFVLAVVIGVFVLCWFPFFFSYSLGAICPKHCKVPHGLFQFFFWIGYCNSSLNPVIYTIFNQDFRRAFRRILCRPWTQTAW
Description: PDSP Primary Binding target: ADRA2B - Compounds are tested at 10 uM concentration, plate are incubated at room temperature in the dark for 90 minutes. Reaction are stopped by vacuum filtration onto 0.3% polyethyleneimine soaked filter mats using Filtermate harvester. Scintilation cocktail is then melted onto microwave-dried filters on a hot plate and the radio activity is counted in Microbia counter.

[6] = target: Sodium-dependent serotonin transporter (Homo sapiens) (UniProt P31645)
Description: PDSP Primary Binding target: SLC6A4 - Compounds are tested at 10 uM concentration, plate are incubated at room temperature in the dark for 90 minutes. Reaction are stopped by vacuum filtration onto 0.3% polyethyleneimine soaked filter mats using Filtermate harvester. Scintilation cocktail is then melted onto microwave-dried filters on a hot plate and the radio activity is counted in Microbia counter.

[7] = target: D(1A) dopamine receptor (Homo sapiens) (UniProt P21728)
Description: PDSP Primary Binding target: DRD1 - Compounds are tested at 10 uM concentration, plate are incubated at room temperature in the dark for 90 minutes. Reaction are stopped by vacuum filtration onto 0.3% polyethyleneimine soaked filter mats using Filtermate harvester. Scintilation cocktail is then melted onto microwave-dried filters on a hot plate and the radio activity is counted in Microbia counter.

[8] = target: Histamine H3 receptor (Homo sapiens) (UniProt Q9Y5N1)
Description: PDSP Primary Binding target: HRH3 - Compounds are tested at 10 uM concentration, plate are incubated at room temperature in the dark for 90 minutes. Reaction are stopped by vacuum filtration onto 0.3% polyethyleneimine soaked filter mats using Filtermate harvester. Scintilation cocktail is then melted onto microwave-dried filters on a hot plate and the radio activity is counted in Microbia counter.

[9] = target: T2, Alpha-1B adrenergic receptor (Homo sapiens) (UniProt P35368)
T2 sequence (whole entry): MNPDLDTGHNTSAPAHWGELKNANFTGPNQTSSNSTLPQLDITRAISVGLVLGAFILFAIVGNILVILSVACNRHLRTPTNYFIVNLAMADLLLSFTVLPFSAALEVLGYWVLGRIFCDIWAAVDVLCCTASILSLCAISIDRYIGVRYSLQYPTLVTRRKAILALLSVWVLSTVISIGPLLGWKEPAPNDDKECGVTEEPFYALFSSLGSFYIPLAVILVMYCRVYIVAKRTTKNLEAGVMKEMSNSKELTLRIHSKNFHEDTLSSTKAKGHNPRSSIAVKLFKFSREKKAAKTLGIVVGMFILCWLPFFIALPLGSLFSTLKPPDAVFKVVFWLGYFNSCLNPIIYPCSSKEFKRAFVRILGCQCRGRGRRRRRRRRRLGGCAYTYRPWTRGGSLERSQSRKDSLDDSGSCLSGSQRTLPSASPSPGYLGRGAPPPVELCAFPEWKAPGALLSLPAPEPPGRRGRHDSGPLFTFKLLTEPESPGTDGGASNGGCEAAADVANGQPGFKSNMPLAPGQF
Description: PDSP Primary Binding target: ADRA1B - Compounds are tested at 10 uM concentration, plate are incubated at room temperature in the dark for 90 minutes. Reaction are stopped by vacuum filtration onto 0.3% polyethyleneimine soaked filter mats using Filtermate harvester. Scintilation cocktail is then melted onto microwave-dried filters on a hot plate and the radio activity is counted in Microbia counter.

[10] = target: Mu-type opioid receptor (Homo sapiens) (UniProt P35372)
Description: PDSP Primary Binding target: OPRM1 - Compounds are tested at 10 uM concentration, plate are incubated at room temperature in the dark for 90 minutes. Reaction are stopped by vacuum filtration onto 0.3% polyethyleneimine soaked filter mats using Filtermate harvester. Scintilation cocktail is then melted onto microwave-dried filters on a hot plate and the radio activity is counted in Microbia counter.

[11] = target: T3, Alpha-1A adrenergic receptor (Homo sapiens) (UniProt P35348)
T3 sequence (whole entry): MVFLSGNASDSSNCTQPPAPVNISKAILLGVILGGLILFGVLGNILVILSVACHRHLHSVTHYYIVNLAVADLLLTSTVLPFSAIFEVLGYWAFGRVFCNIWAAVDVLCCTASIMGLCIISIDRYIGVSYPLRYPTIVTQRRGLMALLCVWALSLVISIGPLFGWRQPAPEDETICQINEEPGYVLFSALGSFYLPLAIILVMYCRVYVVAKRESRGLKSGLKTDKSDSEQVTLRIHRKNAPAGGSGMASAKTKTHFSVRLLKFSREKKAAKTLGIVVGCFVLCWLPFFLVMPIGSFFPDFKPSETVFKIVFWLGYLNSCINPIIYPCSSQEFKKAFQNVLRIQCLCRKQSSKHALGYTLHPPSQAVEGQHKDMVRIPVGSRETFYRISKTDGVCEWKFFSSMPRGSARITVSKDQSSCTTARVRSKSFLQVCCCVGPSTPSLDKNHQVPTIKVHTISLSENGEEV
Description: PDSP Primary Binding target: ADRA1A - Compounds are tested at 10 uM concentration, plate are incubated at room temperature in the dark for 90 minutes. Reaction are stopped by vacuum filtration onto 0.3% polyethyleneimine soaked filter mats using Filtermate harvester. Scintilation cocktail is then melted onto microwave-dried filters on a hot plate and the radio activity is counted in Microbia counter.

[12] = target: Beta-1 adrenergic receptor (Homo sapiens) (UniProt P08588)
Description: PDSP Primary Binding target: ADRB1 - Compounds are tested at 10 uM concentration, plate are incubated at room temperature in the dark for 90 minutes. Reaction are stopped by vacuum filtration onto 0.3% polyethyleneimine soaked filter mats using Filtermate harvester. Scintilation cocktail is then melted onto microwave-dried filters on a hot plate and the radio activity is counted in Microbia counter.

[13] = target: T4, 5-hydroxytryptamine receptor 1A (Homo sapiens) (UniProt P08908)
T4 sequence (whole entry): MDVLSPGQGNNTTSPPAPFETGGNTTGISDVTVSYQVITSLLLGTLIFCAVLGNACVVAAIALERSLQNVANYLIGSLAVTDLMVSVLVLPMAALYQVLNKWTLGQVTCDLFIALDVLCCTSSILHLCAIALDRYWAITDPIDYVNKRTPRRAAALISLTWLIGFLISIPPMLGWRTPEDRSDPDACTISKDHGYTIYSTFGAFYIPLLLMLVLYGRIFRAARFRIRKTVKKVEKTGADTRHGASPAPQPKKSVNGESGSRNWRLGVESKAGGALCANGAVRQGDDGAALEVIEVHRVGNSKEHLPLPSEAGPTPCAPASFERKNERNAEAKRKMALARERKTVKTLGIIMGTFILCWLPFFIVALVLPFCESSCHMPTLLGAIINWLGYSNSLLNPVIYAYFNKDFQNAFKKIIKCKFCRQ
Description: PDSP Primary Binding target: HTR1A - Compounds are tested at 10 uM concentration, plate are incubated at room temperature in the dark for 90 minutes. Reaction are stopped by vacuum filtration onto 0.3% polyethyleneimine soaked filter mats using Filtermate harvester. Scintilation cocktail is then melted onto microwave-dried filters on a hot plate and the radio activity is counted in Microbia counter.

[14] = target: T5, Muscarinic acetylcholine receptor M4 (Homo sapiens) (UniProt P08173)
T5 sequence (whole entry): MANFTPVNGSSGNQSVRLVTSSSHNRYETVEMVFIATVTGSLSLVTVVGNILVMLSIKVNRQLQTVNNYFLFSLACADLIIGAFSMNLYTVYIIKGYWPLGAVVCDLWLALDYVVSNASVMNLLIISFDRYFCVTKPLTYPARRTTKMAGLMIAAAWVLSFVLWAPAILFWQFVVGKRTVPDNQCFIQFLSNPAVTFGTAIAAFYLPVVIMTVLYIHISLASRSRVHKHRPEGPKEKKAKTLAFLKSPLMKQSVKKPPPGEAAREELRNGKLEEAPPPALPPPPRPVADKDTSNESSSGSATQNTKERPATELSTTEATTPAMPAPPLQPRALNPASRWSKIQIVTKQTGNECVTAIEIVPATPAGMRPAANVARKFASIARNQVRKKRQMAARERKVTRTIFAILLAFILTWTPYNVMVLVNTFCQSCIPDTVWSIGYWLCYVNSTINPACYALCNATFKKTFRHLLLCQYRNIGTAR
Description: PDSP Primary Binding target: CHRM4 - Compounds are tested at 10 uM concentration, plate are incubated at room temperature in the dark for 90 minutes. Reaction are stopped by vacuum filtration onto 0.3% polyethyleneimine soaked filter mats using Filtermate harvester. Scintilation cocktail is then melted onto microwave-dried filters on a hot plate and the radio activity is counted in Microbia counter.

Sequence of Histamine H3 receptor (Homo sapiens) (Q9Y5N1 whole entry): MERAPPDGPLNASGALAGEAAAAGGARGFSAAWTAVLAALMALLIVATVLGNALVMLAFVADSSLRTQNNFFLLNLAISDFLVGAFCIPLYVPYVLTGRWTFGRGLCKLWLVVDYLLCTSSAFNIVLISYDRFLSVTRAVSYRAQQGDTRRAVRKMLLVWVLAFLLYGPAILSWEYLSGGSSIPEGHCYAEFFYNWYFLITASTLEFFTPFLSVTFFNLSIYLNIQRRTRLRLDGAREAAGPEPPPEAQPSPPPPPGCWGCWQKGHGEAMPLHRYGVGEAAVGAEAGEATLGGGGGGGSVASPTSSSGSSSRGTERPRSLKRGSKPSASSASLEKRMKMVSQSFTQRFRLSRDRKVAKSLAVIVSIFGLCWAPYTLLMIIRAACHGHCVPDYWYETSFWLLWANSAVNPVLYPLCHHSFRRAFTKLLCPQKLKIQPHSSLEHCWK
Sequence of D(1A) dopamine receptor (Homo sapiens) (P21728 whole entry): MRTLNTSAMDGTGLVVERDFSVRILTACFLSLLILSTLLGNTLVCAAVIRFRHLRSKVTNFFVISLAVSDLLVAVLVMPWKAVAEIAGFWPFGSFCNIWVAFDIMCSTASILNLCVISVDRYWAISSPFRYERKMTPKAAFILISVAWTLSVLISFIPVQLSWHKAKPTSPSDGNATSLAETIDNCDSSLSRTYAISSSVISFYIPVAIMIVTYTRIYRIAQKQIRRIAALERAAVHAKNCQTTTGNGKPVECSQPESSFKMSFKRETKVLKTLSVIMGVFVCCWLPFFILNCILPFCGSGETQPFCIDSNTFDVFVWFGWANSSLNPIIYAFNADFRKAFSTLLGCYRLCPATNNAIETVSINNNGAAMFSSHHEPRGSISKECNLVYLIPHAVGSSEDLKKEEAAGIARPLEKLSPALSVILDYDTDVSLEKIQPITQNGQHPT
Sequence of Beta-1 adrenergic receptor (Homo sapiens) (P08588 whole entry, looked up): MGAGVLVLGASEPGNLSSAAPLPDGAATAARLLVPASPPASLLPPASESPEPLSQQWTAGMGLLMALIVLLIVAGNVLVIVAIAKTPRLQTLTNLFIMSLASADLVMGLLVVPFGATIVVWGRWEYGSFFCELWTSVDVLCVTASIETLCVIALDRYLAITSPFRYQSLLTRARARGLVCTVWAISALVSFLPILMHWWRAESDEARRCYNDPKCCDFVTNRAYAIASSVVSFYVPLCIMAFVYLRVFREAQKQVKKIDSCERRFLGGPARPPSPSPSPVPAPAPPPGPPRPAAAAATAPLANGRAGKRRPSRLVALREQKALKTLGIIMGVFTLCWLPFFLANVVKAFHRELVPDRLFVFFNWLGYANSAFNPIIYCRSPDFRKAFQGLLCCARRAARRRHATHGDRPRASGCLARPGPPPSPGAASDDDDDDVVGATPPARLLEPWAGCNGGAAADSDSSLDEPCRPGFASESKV
Sequence of D(1B) dopamine receptor (Homo sapiens) (P21918 whole entry): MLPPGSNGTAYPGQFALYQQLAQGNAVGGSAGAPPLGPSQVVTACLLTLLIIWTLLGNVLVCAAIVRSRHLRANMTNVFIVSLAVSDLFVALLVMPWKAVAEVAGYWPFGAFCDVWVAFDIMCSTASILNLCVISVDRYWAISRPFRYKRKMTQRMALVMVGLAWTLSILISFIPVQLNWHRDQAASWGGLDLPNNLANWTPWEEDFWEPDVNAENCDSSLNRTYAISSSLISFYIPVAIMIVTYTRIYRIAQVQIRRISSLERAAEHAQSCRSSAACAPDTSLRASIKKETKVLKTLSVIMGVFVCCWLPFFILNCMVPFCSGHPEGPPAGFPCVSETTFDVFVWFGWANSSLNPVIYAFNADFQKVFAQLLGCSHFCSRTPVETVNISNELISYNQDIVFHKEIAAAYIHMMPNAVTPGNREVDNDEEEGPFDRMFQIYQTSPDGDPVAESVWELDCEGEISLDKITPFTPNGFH
Sequence of Mu-type opioid receptor (Homo sapiens) (P35372 whole entry): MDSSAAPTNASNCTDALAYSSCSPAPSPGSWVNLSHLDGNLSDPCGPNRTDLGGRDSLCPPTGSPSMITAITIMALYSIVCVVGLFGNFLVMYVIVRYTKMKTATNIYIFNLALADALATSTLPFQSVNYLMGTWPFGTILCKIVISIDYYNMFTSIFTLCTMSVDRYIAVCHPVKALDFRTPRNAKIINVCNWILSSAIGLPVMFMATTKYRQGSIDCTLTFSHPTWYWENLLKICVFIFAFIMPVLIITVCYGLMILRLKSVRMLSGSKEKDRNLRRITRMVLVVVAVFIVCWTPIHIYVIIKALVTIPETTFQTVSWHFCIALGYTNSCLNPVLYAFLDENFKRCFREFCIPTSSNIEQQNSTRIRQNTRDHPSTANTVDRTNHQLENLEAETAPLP
Sequence of Muscarinic acetylcholine receptor M3 (Homo sapiens) (P20309 whole entry, looked up): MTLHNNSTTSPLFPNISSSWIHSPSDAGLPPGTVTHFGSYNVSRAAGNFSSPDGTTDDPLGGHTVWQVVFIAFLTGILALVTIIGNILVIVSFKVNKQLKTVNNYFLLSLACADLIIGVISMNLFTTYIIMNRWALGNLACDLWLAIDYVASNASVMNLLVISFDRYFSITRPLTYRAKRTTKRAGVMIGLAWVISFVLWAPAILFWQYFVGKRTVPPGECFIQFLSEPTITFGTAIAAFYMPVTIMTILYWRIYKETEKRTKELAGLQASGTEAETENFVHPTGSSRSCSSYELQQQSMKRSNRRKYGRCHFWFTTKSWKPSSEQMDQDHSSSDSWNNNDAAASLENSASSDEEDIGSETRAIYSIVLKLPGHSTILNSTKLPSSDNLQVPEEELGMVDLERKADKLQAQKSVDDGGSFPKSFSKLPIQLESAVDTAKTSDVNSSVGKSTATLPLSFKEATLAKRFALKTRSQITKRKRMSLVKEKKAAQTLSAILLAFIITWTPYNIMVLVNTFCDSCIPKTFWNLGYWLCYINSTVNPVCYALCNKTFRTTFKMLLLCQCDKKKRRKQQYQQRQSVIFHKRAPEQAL
Sequence of 5-hydroxytryptamine receptor 6 (Homo sapiens) (P50406 whole entry): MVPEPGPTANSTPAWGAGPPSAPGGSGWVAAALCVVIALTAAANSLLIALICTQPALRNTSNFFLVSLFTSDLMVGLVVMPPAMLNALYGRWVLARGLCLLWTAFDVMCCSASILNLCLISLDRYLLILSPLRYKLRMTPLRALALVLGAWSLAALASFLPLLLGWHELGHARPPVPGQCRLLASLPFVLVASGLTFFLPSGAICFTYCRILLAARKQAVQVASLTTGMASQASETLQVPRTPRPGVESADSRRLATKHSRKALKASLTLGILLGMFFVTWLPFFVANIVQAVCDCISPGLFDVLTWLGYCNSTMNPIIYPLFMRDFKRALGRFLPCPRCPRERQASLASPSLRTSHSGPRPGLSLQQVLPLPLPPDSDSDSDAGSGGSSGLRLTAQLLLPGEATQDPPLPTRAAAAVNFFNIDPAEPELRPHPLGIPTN
Sequence of Sodium-dependent serotonin transporter (Homo sapiens) (P31645 whole entry, looked up): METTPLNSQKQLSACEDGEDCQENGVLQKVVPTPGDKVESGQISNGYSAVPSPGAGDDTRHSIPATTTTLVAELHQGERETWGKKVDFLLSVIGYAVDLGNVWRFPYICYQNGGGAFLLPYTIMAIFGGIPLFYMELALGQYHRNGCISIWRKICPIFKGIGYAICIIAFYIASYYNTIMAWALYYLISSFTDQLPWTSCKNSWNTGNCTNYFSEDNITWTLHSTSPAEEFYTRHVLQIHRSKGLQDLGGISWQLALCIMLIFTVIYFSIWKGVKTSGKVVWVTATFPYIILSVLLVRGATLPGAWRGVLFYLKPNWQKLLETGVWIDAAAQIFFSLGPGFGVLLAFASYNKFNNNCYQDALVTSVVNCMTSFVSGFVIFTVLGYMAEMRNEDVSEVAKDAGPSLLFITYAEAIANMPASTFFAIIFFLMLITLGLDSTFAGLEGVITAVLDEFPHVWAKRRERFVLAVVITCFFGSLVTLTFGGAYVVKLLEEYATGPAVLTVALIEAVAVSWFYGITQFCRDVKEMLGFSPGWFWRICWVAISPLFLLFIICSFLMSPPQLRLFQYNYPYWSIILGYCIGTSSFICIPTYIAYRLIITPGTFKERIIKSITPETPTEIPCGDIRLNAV
Sequence of D(2) dopamine receptor (Homo sapiens) (P14416 whole entry): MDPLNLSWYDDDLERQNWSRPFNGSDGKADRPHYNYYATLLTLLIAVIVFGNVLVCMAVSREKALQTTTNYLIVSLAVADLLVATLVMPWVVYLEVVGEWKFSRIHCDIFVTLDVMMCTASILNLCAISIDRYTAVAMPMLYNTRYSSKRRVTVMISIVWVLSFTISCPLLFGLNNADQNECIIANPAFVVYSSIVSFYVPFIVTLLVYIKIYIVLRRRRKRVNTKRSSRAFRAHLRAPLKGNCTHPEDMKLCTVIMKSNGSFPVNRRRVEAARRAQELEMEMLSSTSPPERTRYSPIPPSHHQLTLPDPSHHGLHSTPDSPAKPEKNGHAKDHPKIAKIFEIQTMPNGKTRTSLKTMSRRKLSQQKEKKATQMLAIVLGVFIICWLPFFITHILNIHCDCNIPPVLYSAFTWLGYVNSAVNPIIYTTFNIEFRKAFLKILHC

SMILES	inhibition [1] [%]	inhibition [2] [%]	inhibition [3] [%]	inhibition [4] [%]	inhibition [5] [%]	inhibition [6] [%]	inhibition [7] [%]	inhibition [8] [%]	inhibition [9] [%]	inhibition [10] [%]	inhibition [11] [%]	inhibition [12] [%]	inhibition [13] [%]	inhibition [14] [%]
CCc1nn(CCCN2CCN(c3cccc(Cl)c3)CC2)c(=O)n1CCOc1ccccc1	0.27	74.7	69.7	6.13	103	84.9	77.7	-2.65	97.5	32.2	96	30.7	42.6	–
Cc1ccc(O)c([C@H](CCN(C(C)C)C(C)C)c2ccccc2)c1	99.8	–	42.6	–	36.7	20.8	-4.98	4.65	17.4	-3.49	0.77	-3.65	-6.09	0.61
CCc1cc2c(cc1CC)CC(NC[C@H](O)c1ccc(O)c3[nH]c(=O)ccc13)C2	18.1	–	-7.35	38.5	38.5	52.9	11.9	–	59	21	84.1	68	1.29	17.9
O=c1ccn([C@@H]2O[C@H](COP(=O)(O)OP(=O)(O)OP(=O)(O)O)[C@@H](O)[C@H]2O)c(=O)[nH]1	5.24	11.9	90.1	20.2	0.09	13.8	45.1	5.87	–	27.4	2.2	-2.2	26.3	-4.92
O=C(O)C1CN(Cc2ccc(-c3nc4cc(Cc5ccccc5F)ccc4s3)c(F)c2)C1	-1.67	8.45	–	-0.27	–	-1.28	2.63	1.61	–	-9.83	-8.12	22.9	11.5	–
CN[C@@H]1CCc2[nH]c3ccc(C(N)=O)cc3c2C1	15.7	24.2	67.2	20.9	13.7	7.67	–	11.7	93.5	54.7	11.8	1.5	56.4	-3.71
CN1CCN(c2ccc(Nc3c4ccccc4nc4ccccc34)cc2)CC1	43.4	13.8	-0.18	14.1	66	87.7	–	82.6	53.5	12.4	50.9	0.45	8.52	24.6
COc1ccc(NC(=O)c2ccc(-c3ccc(-c4noc(C)n4)cc3C)cc2)cc1OCCN(C)C	37.2	–	34.6	48.4	77.3	55.4	47.9	65.4	26.8	5.21	17.3	4.01	32.1	7.57
CC(C)[C@H](CO)Nc1nc(Nc2cccc(Cl)c2)c2ncn(C(C)C)c2n1	-0.08	52.3	11	8.79	28.1	3.66	20.4	–	12.9	9.06	1.19	29.9	5.71	–
